From US10723695B2, “Microbiocidal phenylamidine derivatives” (SYNGENTA PARTICIPATIONS AG, priority 2015, dated 2020)

What was measured:
[1] = system: Blumeria graminis f. sp. tritici (Erysiphe graminis f. sp. tritici); test: Blumeria graminis f. sp. tritici / wheat / leaf disc preventative (powdery mildew on wheat); assay type: in vivo; conditions: foliar, wheat leaf segments cv. Kanzler, compared to untreated control leaf disks, read-out: disease control
Text: Blumeria graminis f. sp. tritici (Erysiphe graminis f. sp. tritici)/Wheat/Leaf Disc Preventative (Powdery Mildew on Wheat) Wheat leaf segments cv. Kanzler were placed on agar in a multiwell plate (24-well format) and sprayed with the formulated test compound diluted in water. The leaf disks were inoculated by shaking powdery mildew infected plants above the test plates 1 day after application.

[2] = system: Phakopsora pachyrhizi; test: Phakopsora pachyrhizi / soybean / leaf disk preventative (soybean rust); assay type: in vivo; conditions: foliar, soybean leaf disks, compared to untreated control leaf disks, read-out: disease control
How it was run: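 Four-week-old soybean plants sprayed with formulated compound in water; leaf disks cut 1 day later, inoculated on the lower surface with spore suspension. Held 24-36 h dark at 20° C, 75% rh, then 20° C with 12 h light/day; % diseased disk area scored 12-14 days after application.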

[3] = system: Puccinia recondita f. sp. tritici; test: Puccinia recondita f. sp. tritici / wheat / leaf disc preventative (brown rust); assay type: in vivo; conditions: foliar, wheat leaf segments cv. Kanzler, compared to untreated control leaf disks, read-out: disease control
How it was run: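 Wheat leaf segments (cv. Kanzler) on agar were sprayed preventatively with formulated compound diluted in water and inoculated with spores 1 day later. They were incubated at 19 °C, 75% rh, 12 h light/12 h dark. Percent disease control versus untreated was scored 7-9 days after application.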

[4] = system: Puccinia recondita f. sp. tritici; test: Puccinia recondita f. sp. tritici / wheat / leaf disc curative (brown rust); assay type: in vivo; conditions: foliar, 24 h, wheat leaf segments cv. Kanzler, curative (applied 1 day after inoculation), compared to untreated control leaf disks, read-out: disease control
Procedure: Puccinia recondita f. sp. tritici/Wheat/Leaf Disc Curative (Brown Rust) Wheat leaf segments cv. Kanzler are placed on agar in multiwell plates (24-well format). The leaf segments are inoculated with a spore suspension of the fungus. Plates were stored in darkness at 19° C. and 75% rh. The formulated test compound diluted in water was applied 1 day after inoculation.

SMILES	pest or weed control at 200 ppm [1]	pest or weed control at 200 ppm [2]	pest or weed control at 200 ppm [3]	pest or weed control at 200 ppm [4]	melting point
CCN(C)/C=N/c1cc(OC)c(C(O)(C(F)(F)F)C(F)(F)F)cc1C [Compound E1.001]	≥ 80%	≥ 80%	≥ 80%	≥ 80%	126 to 128 °C
C=C(C)CC(O)(c1cc(C)c(/N=C/N(C)C(C)C)cc1OC)C(F)(F)F (stereo not drawn) [Compound E1.082]	≥ 80%	≥ 80%	≥ 80%	≥ 80%	90 to 95 °C
COc1cc(/N=C/N(C)C(C)C)c(C)cc1[C@@](O)(c1ccccc1)C(F)(F)F [Compound E1.026]	≥ 80%	≥ 80%	≥ 80%	≥ 80%	110.5 to 111.7 °C
CCC(O)(c1cc(C)c(/N=C/N(C)C(C)C)cc1OC)C(F)(F)F (stereo not drawn) [Compound E1.063]	≥ 80%	≥ 80%	≥ 80%	≥ 80%	73 to 76 °C
CCN(C)/C=N/c1cc(OC)c(C(O)(c2ccccc2C)C(F)(F)F)cc1C (stereo not drawn) [Compound E1.024]	≥ 80%	≥ 80%	≥ 80%	≥ 80%	115 to 117 °C
CCN(C)/C=N/c1cc(OC)c(C(O)(c2cccc(C#N)c2)C(F)(F)F)cc1C (stereo not drawn) [Compound E1.022]	≥ 80%	≥ 80%	≥ 80%	≥ 80%	38 to 40 °C
CCN(C)/C=N/c1cc(OC)c(C(O)(c2ccc(OC)cc2)C(F)(F)F)cc1C (stereo not drawn) [Compound E1.011]	≥ 80%	≥ 80%	≥ 80%	≥ 80%	67 to 71 °C
CCN(C)/C=N/c1cc(OC)c(C(O)(c2ccc(Cl)cc2Cl)C(F)(F)F)cc1C (stereo not drawn) [Compound E1.017]	≥ 80%	≥ 80%	≥ 80%	≥ 80%	119 to 121 °C
CCN(C)/C=N/c1cc(OC)c(C(O)(c2cc(F)ccc2F)C(F)(F)F)cc1C (stereo not drawn) [Compound E1.031]	≥ 80%	≥ 80%	≥ 80%	≥ 80%	137 to 140 °C
C=CCC(O)(c1cc(C)c(/N=C/N(C)CC)cc1OC)C(F)(F)F (stereo not drawn) [Compound E1.071]	≥ 80%	≥ 80%	≥ 80%	≥ 80%	123 to 127 °C
CCN(C)/C=N/c1cc(OC)c(C(O)(c2cccc(C(F)(F)F)c2)C(F)(F)F)cc1C (stereo not drawn) [Compound E1.010]	≥ 80%	≥ 80%	≥ 80%	≥ 80%	121 to 123 °C
CCN(C)/C=N/c1cc(OC)c(C(O)(c2cccc(C)c2)C(F)(F)F)cc1C (stereo not drawn) [Compound E1.016]	≥ 80%	≥ 80%	≥ 80%	≥ 80%	125 to 127 °C
CCN(C)/C=N/c1cc(OC)c(C(O)(c2ccc(F)cc2F)C(F)(F)F)cc1C (stereo not drawn) [Compound E1.018]	≥ 80%	≥ 80%	≥ 80%	≥ 80%	113 to 114 °C
CCN(C)/C=N/c1cc(OC)c(C(O)(c2ccccc2Cl)C(F)(F)F)cc1C (stereo not drawn) [Compound E1.033]	≥ 80%	≥ 80%	≥ 80%	≥ 80%	97 to 100 °C
CCN(C)/C=N/c1cc(OC)c(C(O)(Cc2cccc(OC)n2)C(F)(F)F)cc1C (stereo not drawn) [Compound E1.100]	≥ 80%	≥ 80%	≥ 80%	≥ 80%	92 to 95 °C
CCN(C)/C=N/c1cc(OC)c(C(O)(c2ccccc2Br)C(F)(F)F)cc1C (stereo not drawn) [Compound E1.035]	≥ 80%	≥ 80%	≥ 80%	≥ 80%	114 to 116 °C
CCN(C)/C=N/c1cc(OC)c(C(O)(C2CC2)C(F)(F)F)cc1C (stereo not drawn) [Compound E1.052]	≥ 80%	≥ 80%	≥ 80%	≥ 80%	64 to 72 °C
CCN(C)/C=N/c1cc(OC)c(C(O)(c2cccc(F)c2)C(F)(F)F)cc1C (stereo not drawn) [Compound E1.029]	≥ 80%	≥ 80%	≥ 80%	≥ 80%	130 to 132 °C
CCN(C)/C=N/c1cc(OC)c(C(O)(CC)c2ccccc2)cc1C (stereo not drawn) [Compound E1.126]	≥ 80%	≥ 80%	≥ 80%	≥ 80%	87 to 89 °C
C=CCC(O)(c1cc(C)c(/N=C/N(C)C(C)C)cc1OC)C(F)(F)F (stereo not drawn) [Compound E1.084]	≥ 80%	≥ 80%	≥ 80%	≥ 80%	45 to 50 °C
COc1cc(/N=C/N(C)C(C)C)c(C)cc1C(O)(C1CC1)C(F)(F)F (stereo not drawn) [Compound E1.064]	≥ 80%	≥ 80%	≥ 80%	≥ 80%	90 to 93 °C
CCN(C)/C=N/c1cc(OC)c(C(O)(c2cccc(Br)c2)C(F)(F)F)cc1C (stereo not drawn) [Compound E1.023]	≥ 80%	≥ 80%	≥ 80%	≥ 80%	98 to 100 °C
CCN(C)/C=N/c1cc(OC)c(C(O)(c2ccc(C)cc2)C(F)(F)F)cc1C (stereo not drawn) [Compound E1.020]	≥ 80%	≥ 80%	≥ 80%	≥ 80%	112 to 114 °C
CCN(C)/C=N/c1cc(OC)c(C(O)(c2ccccc2F)C(F)(F)F)cc1C (stereo not drawn) [Compound E1.034]	≥ 80%	≥ 80%	≥ 80%	≥ 80%	96 to 98 °C
CCN(C)/C=N/c1cc(OC)c(C(O)(Cc2cc(C)ncn2)C(F)(F)F)cc1C (stereo not drawn) [Compound E1.099]	≥ 80%	≥ 80%	≥ 80%	≥ 80%	82 to 85 °C
CCN(C)/C=N/c1cc(OC)c(C(O)(c2ccccc2)C(C)(C)C)cc1C (stereo not drawn) [Compound E1.125]		≥ 80%	≥ 80%	≥ 80%	90 to 92 °C
